The target in test [1] is Adenosine receptor A2a (Rattus norvegicus, UniProt P30543).
Test [2] deals with T1, Adenosine receptor A1 (Rattus norvegicus, UniProt P25099).
T1 sequence (P25099 whole entry): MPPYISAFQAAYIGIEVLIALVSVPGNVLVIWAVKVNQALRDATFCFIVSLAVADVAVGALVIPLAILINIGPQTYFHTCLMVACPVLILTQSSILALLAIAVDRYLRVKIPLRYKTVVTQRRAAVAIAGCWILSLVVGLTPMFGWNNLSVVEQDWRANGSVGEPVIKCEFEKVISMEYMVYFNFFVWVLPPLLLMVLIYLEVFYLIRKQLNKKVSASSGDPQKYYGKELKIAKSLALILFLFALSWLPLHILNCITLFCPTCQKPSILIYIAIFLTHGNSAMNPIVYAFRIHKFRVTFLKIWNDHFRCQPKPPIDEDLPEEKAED
Description: Displacement of [3H]CHA from rat cortical membrane Adenosine A1 receptor. Parenthesis indicate 95% confidence limit.

In test [3] the target is T2, Adenosine receptor A2a (Homo sapiens, UniProt P29274). The experiment in a line: Inhibition of 1 uM NECA-stimulated cyclic AMP levels in human platelets. Format: functional.
T2 sequence (P29274 whole entry): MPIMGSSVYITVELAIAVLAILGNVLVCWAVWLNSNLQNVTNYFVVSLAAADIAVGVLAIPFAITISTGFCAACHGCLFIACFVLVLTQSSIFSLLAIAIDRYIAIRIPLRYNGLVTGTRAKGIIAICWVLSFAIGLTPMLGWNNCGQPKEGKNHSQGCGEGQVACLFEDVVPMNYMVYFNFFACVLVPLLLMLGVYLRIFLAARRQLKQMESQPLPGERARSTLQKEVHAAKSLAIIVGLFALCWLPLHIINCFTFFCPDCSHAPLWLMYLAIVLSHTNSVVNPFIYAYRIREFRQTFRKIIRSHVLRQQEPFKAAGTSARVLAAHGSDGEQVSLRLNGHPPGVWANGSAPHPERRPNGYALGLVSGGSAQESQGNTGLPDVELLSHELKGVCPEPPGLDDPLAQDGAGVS
The nature of test [4]: Selectivity for human A3 adenosine receptor and rat A2A adenosine receptor.
Test [5] has as its target T3, Adenosine receptor A3 (Homo sapiens, UniProt P0DMS8).
T3 sequence (P0DMS8 whole entry): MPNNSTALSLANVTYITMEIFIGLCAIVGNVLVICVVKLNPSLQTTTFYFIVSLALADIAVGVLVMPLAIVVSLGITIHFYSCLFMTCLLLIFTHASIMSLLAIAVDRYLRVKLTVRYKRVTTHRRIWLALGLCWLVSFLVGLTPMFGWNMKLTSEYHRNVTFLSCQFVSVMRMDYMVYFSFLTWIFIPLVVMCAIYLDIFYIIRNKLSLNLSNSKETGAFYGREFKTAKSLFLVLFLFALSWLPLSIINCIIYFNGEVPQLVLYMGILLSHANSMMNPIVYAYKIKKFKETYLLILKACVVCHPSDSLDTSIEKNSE
The experiment in a line: biochemical.
Description: (§1) Displacement of [125I]AB-MECA from human Adenosine A3 receptor expressed in HEK293 cells

Test [6] has as its target T2, Adenosine receptor A2a. The test is described as follows: Displacement of [3H]-SCH- 58261 from human Adenosine A2A receptor expressed in CHO cells. Format: cell-based.
Test [7] deals with T4, Adenosine receptor A1 (Homo sapiens, UniProt P30542).
T4 sequence (P30542 whole entry): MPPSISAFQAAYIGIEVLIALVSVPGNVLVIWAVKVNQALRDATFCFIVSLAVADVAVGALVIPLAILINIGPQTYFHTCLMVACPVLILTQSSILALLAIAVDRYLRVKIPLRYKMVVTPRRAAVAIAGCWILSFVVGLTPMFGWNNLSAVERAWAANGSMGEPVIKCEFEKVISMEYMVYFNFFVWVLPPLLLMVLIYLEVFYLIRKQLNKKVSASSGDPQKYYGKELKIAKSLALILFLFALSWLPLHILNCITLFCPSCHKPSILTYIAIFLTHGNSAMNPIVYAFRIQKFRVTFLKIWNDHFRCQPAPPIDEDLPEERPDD
The test is described as follows: Displacement of [3H]CHA from human Adenosine A1 receptor expressed in CHO cells. Format: cell-based. A general note: In a radioligand displacement assay an active substance lowers the binding of a labelled ligand.

In test [8] the target is T3, Adenosine receptor A3. The experiment in a line: biochemical. The source holds these as a separate data set.
Description: as §1

Bounds are passed on as bounds.

The term Ki denotes a dissociation constant, usually derived from enzyme kinetics or from competition with a known ligand. A high value points to a looser hold on the target. In general, IC50 refers to the concentration at which inhibition is half-maximal. Low readings indicate inhibition by little substance, high ones a need for much substance.

Sequence of Adenosine receptor A2a (Rattus norvegicus, UniProt P30543) (P30543 whole entry): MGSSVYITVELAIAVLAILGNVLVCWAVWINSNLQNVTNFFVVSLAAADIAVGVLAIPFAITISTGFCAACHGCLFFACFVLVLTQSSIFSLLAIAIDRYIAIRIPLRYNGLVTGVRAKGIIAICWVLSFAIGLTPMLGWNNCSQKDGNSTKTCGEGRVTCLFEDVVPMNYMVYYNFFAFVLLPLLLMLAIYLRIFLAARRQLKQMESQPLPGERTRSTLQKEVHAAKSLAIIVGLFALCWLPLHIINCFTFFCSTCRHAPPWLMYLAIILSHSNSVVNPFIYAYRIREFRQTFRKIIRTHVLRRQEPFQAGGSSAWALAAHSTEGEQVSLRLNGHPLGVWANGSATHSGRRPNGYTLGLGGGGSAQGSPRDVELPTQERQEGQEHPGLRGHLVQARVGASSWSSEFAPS

For `Nc1nc2c(cnn2CCCc2ccc(OCc3ccccc3)cc2)c2nc(-c3ccco3)nn12`, the Ki in test [1] is 45 nM; in test [2], 1460 nM; in test [5] it was > 10000 nM. The midpoint of inhibition in test [3], the IC50, lay at 300 nM. Also, in test [4], the Selectivity is > 222.
For the compound `Nc1nc2ccc(Cl)cc2c2nc(-c3ccco3)nn12` [CGS-15943], the results for the Ki in test [1] and in test [5] were 0.95 nM and 14 nM, respectively.
Consider `Nc1nc2c(cnn2CCCc2ccc(O)c(O)c2)c2nc(-c3ccco3)nn12`, for which the results for the inhibition constant Ki in test [1], in test [2] and in test [5] were 49 nM, 2250 nM and > 10000 nM, respectively. In test [3], this compound had an IC50 of 60 nM. In addition, the Selectivity in test [4] is > 204.
Turning to `COc1ccc(CCCn2ncc3c2nc(N)n2nc(-c4ccco4)nc32)cc1OC`, the Ki is 5.3 nM in test [1]; 2.7 nM in test [6]; 2830 nM in test [2]; 1650 nM in test [7]; > 10000 nM in test [8]; > 10000 nM in test [5]. In addition, half-maximal inhibition in test [3] (IC50) required 20 nM. The Selectivity in test [4] is > 1890.
Consider `Nc1nc2c(cnn2Cc2ccc(O)cc2)c2nc(-c3ccco3)nn12`, for which the results for the Ki in test [1], in test [2] and in test [5] were 53 nM, 13400 nM and > 10000 nM, respectively. In test [3], this compound yielded an IC50 of 149 nM. The Selectivity in test [4] was > 188.
In the case of `Nc1nc2c(cnn2CCCc2ccc(O)cc2)c2nc(-c3ccco3)nn12`, the Ki in test [1] is 0.94 nM; in test [6], 1.5 nM; in test [2] it was 741 nM; in test [7], 253 nM; in test [8], > 10000 nM; in test [5], > 10000 nM. The compound also showed an IC50 in test [3] of 10 nM. Also, the Selectivity in test [4] was > 10600.
Consider `Nc1nc2c(cnn2Cc2ccc(OCc3ccccc3)cc2)c2nc(-c3ccco3)nn12`, for which the results for the Ki in test [1], in test [2] and in test [5] were 246 nM, 9450 nM and > 10000 nM, respectively. Also, 500 nM corresponded to half-maximal inhibition in test [3] (IC50). Moreover, the Selectivity in test [4] is > 40.
Take `Nc1nc2c(cnn2CCCc2ccc3c(c2)OCO3)c2nc(-c3ccco3)nn12`: the Ki in test [1] was 3.8 nM; in test [6], 3.3 nM; in test [2], 1840 nM; in test [7], 2170 nM; in test [8] it was > 10000 nM; in test [5], > 10000 nM. In test [3], this compound registered an IC50 of 8 nM. The Selectivity in test [4] is > 2630.
In the case of `Nc1nc2c(cnn2CCc2ccc(O)cc2)c2nc(-c3ccco3)nn12`, the Ki is 1.7 nM in test [1], 444 nM in test [2] and > 10000 nM in test [5]. The IC50 in test [3] came to 14 nM. The Selectivity in test [4] was > 5880.
As to `Nc1nc2c(cnn2CCc2ccc(OCc3ccccc3)cc2)c2nc(-c3ccco3)nn12`, the values for the Ki in test [1], in test [2] and in test [5] were 59 nM, > 10000 nM and > 10000 nM, respectively. The compound also had an IC50 in test [3] of 90 nM. Further, the Selectivity in test [4] is > 169.
`Nc1nc2c(cnn2CCc2ccccc2)c2nc(-c3ccco3)nn12` [SCH-58261]: the Ki in test [5] was > 10000 nM.
As for `Nc1nc2c(cnn2CCCc2ccccc2)c2nc(-c3ccco3)nn12` [SCH-63390], the Ki in test [5] is > 10000 nM.

Values taken from ChEMBL document CHEMBL1131246, “Design, synthesis, and biological evaluation of a second generation of pyrazolo[4,3-e]-1,2,4-triazolo[1,5-c]pyrimidines as potent and selective A2A adenosine receptor antagonists” (J Med Chem, 1998).
